According to PubChem BioAssay (NCI):
“And” between values parts separate entries of the source, which are not always exact repeats. Equal entries are not always repeated.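 Cultured in 96-well plates, cells were exposed to test compound for 48 hours across five concentrations. Here, GI50 denotes the concentration required for 50% inhibition of growth. TGI is the concentration that stops growth completely.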 Where a SMILES comes first, the peptide text is derived from it. [ ]: non-standard residue; d: D form. Ac5c = NC1(C(=O)O)CCCC1

Experiments:
Test in all cases: inhibition of tumour cell growth, NCI panel, 48 h
[1] = test system: KM12 colon
[2] = test system: SNB-75 CNS
[3] = test system: SF-295 CNS
[4] = test system: SK-MEL-5 melanoma
[5] = test system: 786-0 renal
[6] = test system: OVCAR-5 ovarian
[7] = test system: SR leukemia
[8] = test system: COLO 205 colon
[9] = test system: RPMI-8226 leukemia
[10] = test system: SF-268 CNS

Row | SMILES | GI50 [1] | TGI [1] | GI50 [2] | TGI [2] | GI50 [3] | TGI [3] | GI50 [4] | TGI [4] | GI50 [5] | TGI [5] | GI50 [6] | TGI [6] | GI50 [7] | TGI [7] | GI50 [8] | TGI [8] | GI50 [9] | TGI [9] | GI50 [10] | TGI [10]
1 | C=C1C(=O)O[C@H]2[C@H]1CC/C(CNC(=O)c1cc3cc(OC)ccc3[nH]1)=C\CC[C@@]1(C)O[C@@H]21 | 4.98 µM | 17.7 µM | 1.9 µM | 13.1 µM | 4.89 µM | 18.7 µM | 2.01 µM | 4.85 µM | 1.51 µM | 3.2 µM | 2.19 µM | 7.35 µM | 2.24 µM | 10.1 µM | 1.21 µM | 3.04 µM | 1.58 µM | 4.39 µM | 1.79 µM | 4.47 µM
2 | CCN(CC)CCCC(C)Nc1c2ccc(Cl)cc2nc2ccc(OC)cc12 (configuration not stated) | 2.39 µM | 7.83 µM and 5.14 µM | 2.35 µM | 6.66 µM and 3.05 µM | 1.55 µM | 3.51 µM and 2.4 µM |  | 3.1 µM | 1.88 µM | 4.15 µM and 4.77 µM | 2.34 µM | 6.45 µM and 4.75 µM | 1.86 µM | 6 µM and 5.02 µM |  | 3.11 µM and 7.34 µM |  | 5.74 µM and 5.11 µM |  | 5.03 µM and 7.68 µM
3 | NC1(C(=O)NC2(C(=O)O)CCCC2)CCCC1 (H-[Ac5c]-[Ac5c]-OH) |  | > 100 µM |  | > 100 µM |  | > 100 µM |  | > 100 µM |  | > 100 µM |  | > 100 µM |  | > 100 µM |  | > 100 µM |  | > 100 µM |  | > 100 µM
4 | NOCC(=O)O | > 100 µM | > 100 µM | > 100 µM | > 100 µM | > 100 µM | > 100 µM | > 100 µM | > 100 µM | > 100 µM | > 100 µM | > 100 µM | > 100 µM | > 100 µM | > 100 µM | > 100 µM | > 100 µM | 58 µM | > 100 µM | > 100 µM | > 100 µM
5 | O=S(=O)(N/N=C/c1ccc(/C=N/NS(=O)(=O)c2ccccc2)cc1)c1ccccc1 |  | > 100 µM |  | > 100 µM |  | 45.6 µM |  | > 100 µM |  | > 100 µM |  | 51 µM |  | > 100 µM |  | 43.1 µM |  | > 100 µM |  | > 100 µM
6 | CC(=O)N[C@H]1C=C[C@@H]2/C=C(C)/C=C/[C@@H](C)[C@H]([C@H](C)[C@H](O)[C@@H](C)NC(C)=O)OC(=O)/C=C/C=C(C)\C=C\[C@]2(C)C1 | 0.0246 µM and 0.0045 µM | 4.65 µM and > 45 µM | 0.00243 µM and 0.0045 µM |  | 0.00449 µM and 0.0045 µM |  | 0.00896 µM and 0.0045 µM | 0.0458 µM and 0.00824 µM | 0.0242 µM and 0.0045 µM | 4.65 µM and > 45 µM | 14.1 µM | > 45 µM | 0.0184 µM and 0.0045 µM | 4.65 µM and 20.3 µM | 0.0173 µM and 0.0045 µM | 4.65 µM and 5.38 µM | 0.0428 µM and 0.0045 µM | 4.65 µM and 13.1 µM | 0.126 µM and 0.0322 µM | 4.65 µM and > 45 µM
7 | CCN(CC)CCC(=O)NC1c2ccc(Cl)cc2Oc2c(C)cccc21 (configuration not stated) |  | 30.4 µM |  | 22.5 µM |  | 33.9 µM |  | 26.1 µM |  | 25.2 µM |  | 29.2 µM |  | 39.1 µM |  | 40.1 µM |  | 70.3 µM |  | 38.9 µM
8 | CC(=O)Nc1ccc(C(=O)NN2C(=O)C(Cl)C2c2ccc(Cl)cc2)cc1 (configuration not stated) |  | > 100 µM |  | 30.9 µM |  | 44.7 µM |  | > 100 µM |  | 40.3 µM |  | > 100 µM |  | > 100 µM |  | > 100 µM |  | > 100 µM |  | > 86.3 µM
9 | COC(=O)C1C(C(=O)OC)C2(OC)c3ccccc3-c3ccccc3C12 (configuration not stated) |  | > 100 µM |  | > 100 µM |  | > 100 µM |  | 78.7 µM |  | > 100 µM |  | > 100 µM |  | 42 µM |  | 31.3 µM |  | 71.8 µM |  | > 100 µM
10 | CCN(CC)CC(O)CNc1ccc(NCC2CO2)c2c1C(=O)c1ccccc1C2=O (configuration not stated) |  | 1.74 µM |  | 4.29 µM |  | 4.6 µM | 0.398 µM | 1.8 µM | 0.374 µM | 1.15 µM |  | 7.76 µM | 0.0346 µM |  | 0.581 µM | 4.38 µM |  | 5.35 µM |  | 0.683 µM
11 | CC(C)CS(=O)(=O)/C(=C(\c1ccc(Br)cc1)S(=O)(=O)CC(C)C)c1ccc(Br)cc1 |  | > 100 µM |  | > 100 µM |  | > 100 µM |  | 2.8 µM |  | > 100 µM |  | > 100 µM |  | > 100 µM |  | > 100 µM |  | > 100 µM |  | > 100 µM
12 | CC(O)c1cccc(NCc2c3ccccc3c(=O)n3c2oc2ccccc23)c1 (configuration not stated) | 13.4 µM | > 100 µM | 1.75 µM | 5.76 µM | 2.43 µM | 14.5 µM | 4.87 µM | 31.6 µM | 4.18 µM | 19.2 µM | 18.3 µM | > 100 µM | 3.39 µM | 12.1 µM | > 100 µM | > 100 µM | 65 µM | > 100 µM | > 100 µM | > 100 µM
13 | C[C@]12C[C@H](c3ccccc3)Nc3ccccc3N1C(c1ccccc1)=NO2 |  | > 100 µM |  | > 100 µM |  | > 100 µM |  | > 100 µM |  | > 100 µM |  | > 100 µM |  | 26.6 µM |  | > 100 µM |  | > 100 µM |  | > 100 µM
14 | CC(=O)c1c(C)[nH]c(-c2nc3ccc(N4CCN(C)CC4)cc3[nH]2)c1-c1ccc(OCC2CCOCC2)cc1 | 0.924 µM | 14.6 µM | 0.0365 µM | 0.887 µM | 2.67 µM | 15.3 µM | 0.966 µM | 3.17 µM | 1.31 µM | 14.5 µM | 1.62 µM | 32.2 µM | 0.685 µM | 5.73 µM | 0.334 µM | 4.65 µM | 0.251 µM | 1.42 µM | 3.52 µM | 20.1 µM
15 | CO[C@@H]1/C=C\C=C(/C)C(=O)NC2=CC(=O)C(NCCN(C)C)=C(C[C@@H](C)C[C@@H](OC)[C@@H](O)[C@H](C)/C=C(\C)[C@H]1OC(N)=O)C2=O | 0.0147 µM | 1.02 µM and 0.448 µM | < 0.0235 µM | 0.977 µM and 6.15 µM | 0.0278 µM | 17.2 µM and 11.7 µM | < 0.01 µM and 0.0238 µM | 3.12 µM and 1.12 µM | 0.0589 µM | 15 µM and 26.9 µM | 0.406 µM and 0.11 µM | 9.23 µM and 7.52 µM |  | 10.6 µM |  | 0.171 µM |  | 19.6 µM and 6.32 µM | 1.19 µM and 0.209 µM | 16.5 µM and 16.2 µM
16 | ClCc1cccc(Cn2cnc3c(NC45CC6CC(CC(C6)C4)C5)ncnc32)c1 | 14.6 µM | 30.6 µM | 17.4 µM | 43.1 µM | 15.9 µM | 33.3 µM | 16.4 µM | 31.7 µM | 3.43 µM | 25.8 µM | 19.2 µM | 36.4 µM |  | 18.9 µM | 20.5 µM | > 69.4 µM | 10.8 µM | > 53.2 µM | 12 µM | 40.5 µM
17 | O=C1Nc2ccc(C(=O)c3ccco3)cc2/C1=C/c1cc(Cl)c(O)c(Cl)c1 | 3.62 µM | > 17.7 µM | 6.16 µM | > 25 µM | 8.21 µM | > 25 µM | 3.43 µM | 6.88 µM | 4.29 µM | 11.6 µM | 8.35 µM | > 20 µM | 3.03 µM | 18.8 µM | 8.01 µM | > 25 µM | 4.02 µM | 12.5 µM | 5.94 µM | > 25 µM
18 | Cc1nc2sc(C(=O)Nc3cccc(Cl)c3C)c(N)c2cc1C(=O)/C=C/c1ccccc1 | 0.479 µM | 1.5 µM | 0.217 µM | 5.45 µM | 0.446 µM | 2.1 µM | 0.572 µM | 1.43 µM | 0.232 µM | 0.907 µM | 0.714 µM | 1.74 µM | 0.188 µM |  | 0.979 µM | 2.39 µM | 0.14 µM | 0.465 µM | 0.938 µM | 5.15 µM
19 | CSc1ccc(C2=NN(C(=O)c3ccc(F)cc3)C(c3ccc(F)cc3)C2)cc1 (configuration not stated) | 2.2 µM | 5.83 µM | 13.1 µM | 26 µM | 17.9 µM | 33.7 µM | 18.5 µM | 33.3 µM | 15.5 µM | 30.7 µM | 18.2 µM | 33.3 µM | 1.71 µM | 5.95 µM | 12.3 µM | 25.6 µM | 1.68 µM | 4.2 µM | 2.69 µM | 13.4 µM
20 | Nc1ccc(N(S(=O)(=O)c2ccccc2)S(=O)(=O)c2ccccc2)c(Cl)c1 |  | > 100 µM |  | > 100 µM |  | > 100 µM |  | 50.4 µM |  | > 100 µM |  | > 100 µM |  | > 100 µM |  | > 100 µM |  | > 100 µM |  | > 100 µM
21 | CC(=O)OCC1OC(N2C(=O)C(=O)c3cc(C)ccc32)C(OC(C)=O)C(OC(C)=O)C1OC(C)=O (configuration not stated) |  | > 100 µM |  | > 100 µM |  | > 100 µM |  | > 100 µM |  | > 100 µM |  | > 100 µM |  | 41.4 µM |  | > 100 µM |  | 70.1 µM |  | > 100 µM
22 | O=[N+]([O-])c1cc(Cl)c(Cl)c([N+](=O)[O-])c1Cl | 1.44 µM | 2.97 µM | 1.47 µM | 2.81 µM | 1.99 µM | 4.4 µM | 1.73 µM | 3.47 µM | 1.88 µM | 3.43 µM | 2.13 µM | 4.18 µM | 0.538 µM | 4.93 µM | 1.55 µM | 2.91 µM | 0.422 µM | 2.61 µM | 1.77 µM | 3.39 µM
23 | CN1CCN(CCCN)CC1 |  | > 100 µM |  | > 100 µM |  | > 100 µM |  | > 100 µM |  | > 100 µM |  | > 100 µM |  | > 100 µM |  | > 100 µM |  | > 100 µM |  | > 100 µM
24 | O=[N+]([O-])c1cccc(/C=N\NS(=O)(=O)c2ccc(Cl)cc2)c1O |  | > 100 µM |  | > 100 µM |  | > 100 µM |  | > 100 µM |  | > 100 µM |  | > 100 µM |  | 60.5 µM |  | > 100 µM |  | > 100 µM |  | > 100 µM
25 | COc1ccc(NC(=O)C(=O)C(C(=O)c2ccccc2)C2OC(=O)c3ccccc32)c([N+](=O)[O-])c1 (configuration not stated) |  | > 100 µM |  | > 100 µM |  | > 100 µM |  | > 100 µM |  | > 100 µM |  | > 100 µM |  | > 100 µM |  | > 100 µM |  | > 100 µM |  | > 100 µM
